Key:
KCNQ2/3 channels = target: T1, KCNQ2/3 channels (Homo sapiens, UniProt O43525+O43526); experiment: Fluorescence assay using a voltage sensitive dye (fluorimetry); format: cell-based; conditions: CHO-K1 cells expressing KCNQ2/3; for Emax: CHO-K1, plateau effect relative to saturated retigabine (50 μM) = 100%, negative values = antagonistic, read-out: Fluorimetry % efficacy (retigabine = 100%); for EC50: IC50 where % efficacy is negative, read-out: Fluorimetry EC50/IC50
T1 construct: expressed in transfected cells
T1 sequence (O43526 whole entry): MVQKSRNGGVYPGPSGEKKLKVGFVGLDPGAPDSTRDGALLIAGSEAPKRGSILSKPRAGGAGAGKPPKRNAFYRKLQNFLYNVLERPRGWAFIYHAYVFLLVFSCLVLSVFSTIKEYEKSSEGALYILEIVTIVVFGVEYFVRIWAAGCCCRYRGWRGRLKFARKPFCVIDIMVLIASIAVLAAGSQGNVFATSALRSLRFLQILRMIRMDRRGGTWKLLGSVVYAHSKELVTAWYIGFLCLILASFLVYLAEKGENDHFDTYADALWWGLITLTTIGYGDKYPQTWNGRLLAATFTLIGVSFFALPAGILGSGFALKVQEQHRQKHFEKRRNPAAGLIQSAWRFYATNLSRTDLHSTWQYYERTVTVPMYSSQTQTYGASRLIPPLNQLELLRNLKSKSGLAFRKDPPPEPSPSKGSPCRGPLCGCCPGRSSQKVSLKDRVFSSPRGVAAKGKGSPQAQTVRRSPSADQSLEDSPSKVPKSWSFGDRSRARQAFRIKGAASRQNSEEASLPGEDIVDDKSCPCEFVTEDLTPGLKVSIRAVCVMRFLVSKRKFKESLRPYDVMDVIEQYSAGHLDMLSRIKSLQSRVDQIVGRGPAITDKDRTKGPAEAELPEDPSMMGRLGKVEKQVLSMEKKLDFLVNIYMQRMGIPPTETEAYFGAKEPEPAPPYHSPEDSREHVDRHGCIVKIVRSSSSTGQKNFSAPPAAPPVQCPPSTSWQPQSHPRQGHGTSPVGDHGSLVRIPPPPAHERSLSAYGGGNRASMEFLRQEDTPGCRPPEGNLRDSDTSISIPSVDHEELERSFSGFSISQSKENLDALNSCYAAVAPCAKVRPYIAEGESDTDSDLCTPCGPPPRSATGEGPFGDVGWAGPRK
T1 sequence (O43525 whole entry): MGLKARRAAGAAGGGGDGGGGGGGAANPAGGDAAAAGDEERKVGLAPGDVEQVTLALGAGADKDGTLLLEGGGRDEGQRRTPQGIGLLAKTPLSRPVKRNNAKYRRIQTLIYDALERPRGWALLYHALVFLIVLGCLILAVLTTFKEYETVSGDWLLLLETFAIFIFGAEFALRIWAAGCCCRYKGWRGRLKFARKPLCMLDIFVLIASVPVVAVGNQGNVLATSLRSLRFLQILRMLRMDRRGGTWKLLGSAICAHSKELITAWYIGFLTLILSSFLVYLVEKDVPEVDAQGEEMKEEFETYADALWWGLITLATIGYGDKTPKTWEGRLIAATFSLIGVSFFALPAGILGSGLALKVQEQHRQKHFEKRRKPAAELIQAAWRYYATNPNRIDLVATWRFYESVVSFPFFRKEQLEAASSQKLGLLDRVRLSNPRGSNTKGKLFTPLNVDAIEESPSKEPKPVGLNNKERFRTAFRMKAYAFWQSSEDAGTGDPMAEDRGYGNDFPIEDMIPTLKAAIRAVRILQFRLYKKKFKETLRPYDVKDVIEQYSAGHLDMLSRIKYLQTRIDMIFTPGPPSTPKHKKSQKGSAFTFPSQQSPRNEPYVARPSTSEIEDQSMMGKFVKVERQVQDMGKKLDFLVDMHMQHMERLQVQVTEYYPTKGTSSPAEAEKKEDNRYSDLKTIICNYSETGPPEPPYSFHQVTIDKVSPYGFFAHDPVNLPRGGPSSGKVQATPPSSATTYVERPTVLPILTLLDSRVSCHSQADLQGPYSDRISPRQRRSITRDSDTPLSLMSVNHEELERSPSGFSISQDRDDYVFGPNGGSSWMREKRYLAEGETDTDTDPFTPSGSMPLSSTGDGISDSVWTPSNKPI

rat = experiment: Low-intensity tail flick test (rat); format: in vivo; conditions: po, peroral, dose 10 mg/kg, MPE = % of maximum possible effect
Protocol: Method II. Low-Intensity Tail Flick Test (Rat)
In the low-intensity tail flick test, the determination of the antinociceptive effect of the compounds according to the invention towards an acute noxious thermal stimulus is carried out by measuring the withdrawal reflex of the rat tail (tail flick) in response to a radiant heat beam (analgesia meter; model 2011 of the company Rhema Labortechnik, Hofheim, Germany) according to the method described by D'Amour and Smith (J. Pharm. Exp. Ther. 72, 74 79 (1941). To this end, the rats were placed in a plexiglass restrainer, and a low-intensity radiant heat beam (48° C.) was focused onto the dorsal surface of the tail root. The stimulus intensity was adjusted to result in a mean pre-drug control withdrawal latency of about 7 s, thus also allowing a supraspinal modulation of the spinally mediated acute nociceptive reflex. A cutoff time of 30 s was applied to avoid tissue damage. Male Sprague-Dawley rats (Janvier, Le Genest St. Isle, Frankreich) with weights of 200-250 g were used. 10 rats were used per group. Before administration of a compound according to the invention, the animals were pre-tested twice in the course of five minutes and the mean of these measurements was calculated as the pre-test mean. The antinociceptive effect was determined at 20, 40 and 60 min after peroral compound administration. The antinociceptive effect was calculated based on the increase in the tail withdrawal latency according to the following formula and is expressed as percentage of the maximum possible effect (MPE [%]): MPE=[(T1−T0)/(T2−T0)]*100
In this, T0 is the control latency time before and T1 the latency time after administration of the compound, T2 is the cutoff time and MPE is the maximum possible effect. Employing variant analysis (repeated measures ANOVA) allowed testing of statistically significant differences between the compounds according to the invention and the vehicle group. The significance level was set to p≦0.05. To determine the dose dependency, the particular compound according to the invention was administered in 3-5 logarithmically increasing doses, including a threshold dose and a maximum effective dose, and the ED50 values were determined with the aid of regression analysis. The ED50 calculation was performed at the time of maximum efficacy (usually 20 min after administration of the compounds).

Row | Emax (KCNQ2/3 channels) [%] | EC50 (KCNQ2/3 channels) [nM] | SMILES | inhibition in vivo at 10 mg/kg (rat) [%]
1 | 158 | 124 | CCSc1nc(N2CCOCC2)cc(C)c1C(=O)NCc1ccc(F)cc1 [Example 4, 2-Ethylsulfanyl-N-[(4-fluorophenyl)-methyl]-4-methyl-6-morpholin-4-yl-pyridine-3-carboxylic acid amide] | 94
2 | 168 | 587 | CSc1nc(N2CCOCC2)cc(C)c1C(=O)NCc1cccc(F)c1 [Example 40, N-[(3-Fluorophenyl)-methyl]-4-methyl-2-methylsulfanyl-6-morpholin-4-yl-pyridine-3-carboxylic acid amide] | 84

From patent publication US9168259B2 (GRÜNENTHAL GMBH, priority 2010, dated 2015)
